Results on 15 compounds are retold here after patent US9382245B2, “Compounds and methods for treating HIV infections” (priority 2013, dated 2016).

Some results are limits rather than exact numbers.

The nature of this data set: in vitro. To be noted: human.
Take `N#Cc1cc2c(Oc3ccc(Cl)cc3OCCn3ccc(=O)[nH]c3=O)cccc2o1` [12h, 4-(4-chloro-2-(2-(2,4-dioxo-3,4-dihydropyrimidin-1(2H)-yl)ethoxy)phenoxy)benzofuran-2-carbonitrile]: the CC50 was 7 µM.
The figure for `Cc1cc2c(Oc3ccccc3OCCn3ccc(=O)[nH]c3=O)cccc2[nH]1` [8c, 1-(2-(2-((2-methyl-1H-indol-4-yl)oxy)phenoxy)ethyl)pyrimidine-2,4(1H,3H)-dione] is 15 µM; for `O=c1ccn(CCOc2cc(Cl)ccc2Oc2cccc3ccoc23)c(=O)[nH]1` [13a, 1-(2-(2-(benzofuran-7-yloxy)-5-chlorophenoxy)ethyl)pyrimidine-2,4(1H,3H)-dione] it is 50 µM.
The figure for `Cc1cc(Oc2ccccc2OCCn2ccc(=O)[nH]c2=O)c2cc(C#N)oc2c1` [12b, 4-(2-(2-(2,4-dioxo-3,4-dihydropyrimidin-1(2H)-yl)ethoxy)phenoxy)-6-methylbenzofuran-2-carbonitrile] is above 100 µM; for `Cc1cc(Oc2ccccc2OCCn2ccc(=O)[nH]c2=O)c2cc(C#N)cn2c1` [10c, 8-(2-(2-(2,4-dioxo-3,4-dihydropyrimidin-1(2H)-yl)ethoxy)phenoxy)-6-methylindolizine-2-carbonitrile] it is 3 µM; for `N#Cc1cc2c(Oc3ccc(Cl)cc3OCCn3ccc(=O)[nH]c3=O)cccn2c1` [10m, 8-(4-chloro-2-(2-(2,4-dioxo-3,4-dihydropyrimidin-1(2H)-yl)ethoxy)phenoxy)indolizine-2-carbonitrile] it is 55 µM.
The figure for `N#Cc1cc2c(Oc3ccccc3OCCn3ccc(=O)[nH]c3=O)cc(Cl)cc2[nH]1` [8f, 6-chloro-4-(2-(2-(2,4-dioxo-3,4-dihydropyrimidin-1(2H)-yl)ethoxy)phenoxy)-1H-indole-2-carbonitrile] is 81 µM; for `N#Cc1cc2c(Oc3cc(F)ccc3OCCn3ccc(=O)[nH]c3=O)cccn2c1` [10j, 8-(2-(2-(2,4-dioxo-3,4-dihydropyrimidin-1(2H)-yl)ethoxy)-5-fluorophenoxy)indolizine-2-carbonitrile] it is 35 µM.
Compound `Cc1cc2c(Oc3ccc(Cl)cc3OCCn3ccc(=O)[nH]c3=O)cccc2o1` [12g, 1-(2-(5-chloro-2-((2-methylbenzofuran-4-yl)oxy)phenoxy)ethyl)pyrimidine-2,4(1H,3H)-dione] returned a CC50 of 8 µM.
Compound `Cc1cc(Oc2ccc(F)cc2OCCn2ccc(=O)[nH]c2=O)c2cc(C#N)oc2c1` [12e, 4-(2-(2-(2,4-dioxo-3,4-dihydropyrimidin-1(2H)-yl)ethoxy)-4-fluorophenoxy)-6-methylbenzofuran-2-carbonitrile] registered a CC50 above 100 µM.
The figure for `O=c1ccn(CCOc2cc(Cl)ccc2Oc2cccc3occc23)c(=O)[nH]1` [12f, 1-(2-(2-(benzofuran-4-yloxy)-5-chlorophenoxy)ethyl)pyrimidine-2,4(1H,3H)-dione] is 19 µM.
The figure for `N#Cc1cc2c(Oc3cc(F)c(F)cc3OCCn3ccc(=O)[nH]c3=O)cc(F)cn2c1` [10l, 8-(2-(2-(2,4-dioxo-3,4-dihydropyrimidin-1(2H)-yl)ethoxy)-4,5-difluorophenoxy)-6-fluoroindolizine-2-carbonitrile] is 54 µM; for `O=c1ccn(CCOc2cc(Cl)ccc2Oc2cccc3[nH]ccc23)c(=O)[nH]1` [8b, 1-(2-(2-((1H-indol-4-yl)oxy)-5-chlorophenoxy)ethyl)pyrimidine-2,4(1H,3H)-dione] it is 18 µM; for `Cc1cc(Oc2ccccc2OCCn2ccc(=O)[nH]c2=O)c2cc(C#N)[nH]c2c1` [8e, 4-(2-(2-(2,4-dioxo-3,4-dihydropyrimidin-1(2H)-yl)ethoxy)phenoxy)-6-methyl-1H-indole-2-carbonitrile] it is 1.2 µM.
In turn, `N#Cc1cc2c(Oc3ccccc3OCCn3ccc(=O)[nH]c3=O)cccc2[nH]1` [8d, 4-(2-(2-(2,4-dioxo-3,4-dihydropyrimidin-1(2H)-yl)ethoxy)phenoxy)-1H-indole-2-carbonitrile] returned a CC50 of 72 µM.
